Results taken from the supplement of paper PMC11061612.

Legend:
[1] = test system: U-118-MG (Low Grade Glioma); assay: Bliss excess, mean over the matrix (fraction); higher = more synergy
Outline: (§1)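 Bliss excess equals the observed combination effect minus the expected value EA + EB − EA·EB, where EA and EB are the effects of each agent alone. Combination Emax is the second-highest inhibition within the matrix. Inhibition was scaled from CellTiter-Glo 2.0 luminescence, with 0 set by vehicle wells and 1 by blank wells, after 72 hours of two-drug dosing of cells plated in 1536-well plates.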

HCC38 (Breast Carcinoma) = assay: as above
Outline: as §1

[2] = test system: SKN-3 (Head and Neck Carcinoma); assay: as above
Outline: as §1

[3] = test system: NOMO-1 (Acute Myeloid Leukemia); assay: as above
Outline: as §1

[4] = test system: SW948 (Colorectal Carcinoma); assay: as above
Outline: as §1

[5] = test system: NCI-H1688 (Small Cell Lung Carcinoma); assay: as above
Outline: as §1

[6] = test system: ETK-1 (Biliary Tract Carcinoma); assay: as above
Outline: as §1

[7] = test system: D-283MED (Other Solid Carcinomas); assay: as above
Outline: as §1

[8] = test system: MES-SA (Other Solid Carcinomas); assay: as above
Outline: as §1

[9] = test system: RCC10RGB (Kidney Carcinoma); assay: as above
Outline: as §1

[10] = test system: SW48 (Colorectal Carcinoma); assay: as above
Outline: as §1

[11] = test system: GDM-1 (Acute Myeloid Leukemia); assay: as above
Outline: as §1

EW-22 (Ewing's Sarcoma) = assay: as above
Outline: as §1

HuO9 (Osteosarcoma) = assay: as above
Outline: as §1

[12] = test system: 647-V (Bladder Carcinoma); assay: combination Emax (second highest fraction inhibited in the dose matrix, 72 h); higher = more inhibition; extreme values may be limits of the assay
Outline: as §1

[13] = test system: SLVL (B-Cell Non-Hodgkin's Lymphoma); assay: as above
Outline: as §1

[14] = test system: SNG-M (Endometrial Carcinoma); assay: as above
Outline: as §1

[15] = test system: MES-SA (Other Solid Carcinomas); assay: as above
Outline: as §1

[16] = test system: HCC1143 (Breast Carcinoma); assay: as above
Outline: as §1

MSTO-211H (Mesothelioma) = assay: as above
Outline: as §1

Row | SMILES | Bliss excess [1] | Bliss excess (HCC38 (Breast Carcinoma)) | Bliss excess [2] | Bliss excess [3] | Bliss excess [4] | Bliss excess [5] | Bliss excess [6] | Bliss excess [7] | Bliss excess [8] | Bliss excess [9] | Bliss excess [10] | Bliss excess [11] | Bliss excess (EW-22 (Ewing's Sarcoma)) | Bliss excess (HuO9 (Osteosarcoma)) | combination Emax [12] | combination Emax [13] | combination Emax [14] | combination Emax [15] | combination Emax [16] | combination Emax (MSTO-211H (Mesothelioma))
1 | Cc1cc2ncnn2cc1Nc1ncc2c(n1)n(C1CCOCC1)c(=O)n2C [AZD7648] + C[C@@H]1COCCN1C2=NC(=NC(=C2)C3(CC3)[S@](=N)(=O)C)C4=C5C=CNC5=NC=C4 [AZD6738] (first compound max 10 µM, 7x7, partner max 10 µM) | -0.0049 | 0.0245 | -0.0279 | 0.0248 | -0.0422 | 0.0136 | -0.0173 | -0.1 | 0.0541 | 0.0076 | -0.0195 | -0.022 | 0.0058 | -0.0537 | 0.585 | 0.886 | 0.939 | 0.632 | 0.853 | 0.681
2 | NC1(C(=O)N[C@@H](CCO)c2ccc(Cl)cc2)CCN(c2ncnc3[nH]ccc23)CC1 [Capivasertib] + CC(=O)c1c(C)c2cnc(Nc3ccc(N4CCNCC4)cn3)nc2n(C2CCCC2)c1=O [Palbociclib] (first compound max 10 µM, 7x7, partner max 10 µM) | -0.0154 | -0.023 | -0.0502 | 0.0378 | -0.0442 | 0.017 | -0.0711 | -0.0227 | -0.0017 | -0.0368 | -0.0217 | 0.0262 | -0.0152 | -0.0311 | 0.277 | 0.56 | 0.501 | 0.607 | 0.498 | 0.261
3 | NC1(C(=O)N[C@@H](CCO)c2ccc(Cl)cc2)CCN(c2ncnc3[nH]ccc23)CC1 [Capivasertib] + CC(C)n1c(=O)n(C)c2cnc3cc(F)c(-c4ccc(OCCCN5CCCCC5)nc4)cc3c21 [AZD1390] (first compound max 10 µM, 7x7, partner max 0.3 µM) | -0.0405 | -0.0314 | -0.0849 | -0.0537 | -0.0943 | -0.044 | -0.0189 | -0.0009 | -0.0275 | -0.0676 | -0.0345 | -0.0904 | -0.0613 | -0.0009 | 0.22 | 0.637 | 0.29 | 0.469 | 0.174 | 0.213
4 | NC1(C(=O)N[C@@H](CCO)c2ccc(Cl)cc2)CCN(c2ncnc3[nH]ccc23)CC1 [Capivasertib] + CCN(CCO)CCCOc1ccc2c(Nc3cc(CC(=O)Nc4cccc(F)c4)[nH]n3)ncnc2c1 [AZD2811] (first compound max 10 µM, 7x7, partner max 1 µM) | -0.0475 | 0.0054 | -0.0524 | -0.0085 | -0.0161 | -0.0412 | -0.012 | 0.0666 | 0.0165 | -0.0838 | 0.0146 | -0.0464 | -0.0366 | 0.0135 | 0.309 | 0.667 | 0.363 | 0.756 | 0.287 | 0.379
5 | NC1(C(=O)N[C@@H](CCO)c2ccc(Cl)cc2)CCN(c2ncnc3[nH]ccc23)CC1 [Capivasertib] + COc1nnc2ccc(N3CCC(c4ccc(OCCN5CCN(C)C(=O)[C@H]5C)cc4)CC3)nn12 [AZD5153] (first compound max 10 µM, 7x7, partner max 1 µM) | 0.057 | -0.022 | 0.0027 | -0.0061 | -0.0082 | 0.001 | 0.0486 | -0.0185 | 0.0276 | 0.0221 | -0.0226 | 0.0163 | 0.08 | -0.0142 | 0.502 | 0.764 | 0.749 | 0.621 | 0.325 | 0.258
6 | NC1(C(=O)N[C@@H](CCO)c2ccc(Cl)cc2)CCN(c2ncnc3[nH]ccc23)CC1 [Capivasertib] + C[C@@H]1COCCN1C2=NC(=NC(=C2)C3(CC3)[S@](=N)(=O)C)C4=C5C=CNC5=NC=C4 [AZD6738] (first compound max 10 µM, 7x7, partner max 10 µM) | -0.0276 | -0.0366 | -0.0564 | -0.0579 | -0.102 | -0.0062 | -0.066 | -0.0048 | -0.0719 | -0.134 | -0.0387 | -0.024 | -0.0047 | -0.0535 | 0.76 | 0.845 | 0.888 | 0.721 | 0.725 | 0.304
